Values quoted from earlier work as cited in US20220370444A1 (priority 2019, published 2022).

Columns and labels:
TB = conditions: after two weeks of oral administration
[1] = not told
[2] = in vivo

In the case of `CC(C)/N=c1\cc2n(-c3ccc(Cl)cc3)c3ccccc3nc-2cc1Nc1ccc(Cl)cc1` [clofazimine], the clinical benefit (TB) is listed as “no clinical benefit”, the membrane permeability [1] is listed as “high” and the “absorption in humans after oral administration” value [2] is listed as 45-62%.
